Measured values from ChEMBL document CHEMBL3611986, “Reversal of P-gp and BCRP-mediated MDR by tariquidar derivatives” (Eur J Med Chem, 2015).

Tests used:
[1] = Cytotoxicity against human SW620/AD300 cells assessed as cell viability after 48 hrs by MTT assay; assay type: cell-based; conditions: SW-620, 48 h
HCT-116 = assay: Cytotoxicity against human HCT116 cells assessed as cell viability after 48 hrs by MTT assay; assay type: cell-based; conditions: HCT-116, 48 h
[2] = Cytotoxicity against human CCD-18Co cells assessed as cell viability after 48 hrs by MTT assay; assay type: cell-based
[3] = Cytotoxicity against human HFE cells assessed as cell viability after 72 hrs by MTT assay; assay type: cell-based
[4] = biological target: Multidrug resistance-associated protein 1 (Homo sapiens, UniProt P33527); assay: Inhibition of MRP1 (unknown origin)-mediated calcein-AM efflux expressed in HEK293/MRP1 cells at 0.5 uM after 1 hr by flow cytometry; assay type: cell-based; conditions: hek293/mrp1, 1 h
SW-620 [5] = assay: Cytotoxicity against human SW620 cells assessed as cell viability after 48 hrs by MTT assay; assay type: cell-based; conditions: SW-620, 48 h
[6] = Cytotoxicity against human MCF-7 FLV1000 cells expressing BCRP at 200 nM after 72 hrs by SRB assay; assay type: ADME, cell-based; conditions: mcf-7 flv1000, 72 h, 0.2 µM
HepG2 [7] = assay: Cytotoxicity against human HepG2 cells at 200 nM after 72 hrs by SRB assay; assay type: cell-based; conditions: hepg2, 72 h, 0.2 µM
[8] = Potentiation of paclitaxel-induced cytotoxicity against human LCC6 cells at 200 nM after 72 hrs by SRB assay relative to control; assay type: functional
MCF7 [9] = assay: Potentiation of mitoxantrone-induced cytotoxicity against human MCF7 cells at 200 nM after 72 hrs by SRB assay relative to control; assay type: functional
[10] = biological target: T1, ATP-dependent translocase ABCB1 (Homo sapiens, UniProt P08183); assay: Inhibition of p-glycoprotein in human LCC6/MDR cells assessed as increase of paclitaxel-induced cytotoxicity at 200 nM after 72 hrs by SRB assay relative to control; assay type: cell-based; conditions: 0.2 µM
[11] = biological target: T1, ATP-dependent translocase ABCB1; assay: Inhibition of p-glycoprotein in human SW620/AD300 cells assessed as increase of doxorubicin-induced cytotoxicity at 200 nM after 72 hrs by SRB assay relative to control; assay type: cell-based; conditions: sw-620, 72 h, 0.2 µM
HepG2 [12] = assay: Cytotoxicity against human HepG2 cells expressing p-glycoprotein at 200 nM after 72 hrs by SRB assay; assay type: cell-based; conditions: hepg2, 72 h, 0.2 µM
[13] = Cytotoxicity against human LCC6 cells at 200 nM after 72 hrs by SRB assay; assay type: cell-based; conditions: lcc6, 72 h, 0.2 µM
[14] = Cytotoxicity against human LCC6 cells expressing p-glycoprotein at 200 nM after 72 hrs by SRB assay; assay type: cell-based; conditions: lcc6, 72 h, 0.2 µM
SW-620 [15] = assay: Potentiation of doxorubicin-induced cytotoxicity against human SW620 cells at 200 nM after 72 hrs by SRB assay relative to control; assay type: functional
HepG2 [16] = assay: Potentiation of doxorubicin-induced cytotoxicity against human HepG2 cells at 200 nM after 72 hrs by SRB assay relative to control; assay type: functional
[17] = Cytotoxicity against human SW620/AD300 cells expressing p-glycoprotein at 200 nM after 72 hrs by SRB assay; assay type: cell-based; conditions: sw-620, 72 h, 0.2 µM
[18] = biological target: T1, ATP-dependent translocase ABCB1; assay: Inhibition of p-glycoprotein in human HepG2 cells assessed as increase of doxorubicin-induced cytotoxicity at 200 nM after 72 hrs by SRB assay relative to control; assay type: cell-based; conditions: hepg2, 72 h, 0.2 µM
MCF7 [19] = assay: Cytotoxicity against human MCF7 cells at 200 nM after 72 hrs by SRB assay; assay type: cell-based; conditions: mcf7, 72 h, 0.2 µM
Hepatocyte = assay: Cytotoxicity against rat hepatocytes assessed as cell viability after 72 hrs by MTT assay; assay type: cell-based; conditions: for IC50: Rattus norvegicus, Hepatocyte
SW-620 [20] = assay: Cytotoxicity against human SW620 cells at 200 nM after 72 hrs by SRB assay; assay type: cell-based; conditions: sw-620, 72 h, 0.2 µM
[21] = biological target: T2, Broad substrate specificity ATP-binding cassette transporter ABCG2 (Homo sapiens, UniProt Q9UNQ0); assay: Inhibition of BCRP in human MCF-7 FLV1000 cells assessed as increase of mitoxantrone-induced cytotoxicity at 200 nM after 72 hrs by SRB assay relative to control; assay type: cell-based; conditions: 0.2 µM
T2 sequence (Q9UNQ0 whole entry): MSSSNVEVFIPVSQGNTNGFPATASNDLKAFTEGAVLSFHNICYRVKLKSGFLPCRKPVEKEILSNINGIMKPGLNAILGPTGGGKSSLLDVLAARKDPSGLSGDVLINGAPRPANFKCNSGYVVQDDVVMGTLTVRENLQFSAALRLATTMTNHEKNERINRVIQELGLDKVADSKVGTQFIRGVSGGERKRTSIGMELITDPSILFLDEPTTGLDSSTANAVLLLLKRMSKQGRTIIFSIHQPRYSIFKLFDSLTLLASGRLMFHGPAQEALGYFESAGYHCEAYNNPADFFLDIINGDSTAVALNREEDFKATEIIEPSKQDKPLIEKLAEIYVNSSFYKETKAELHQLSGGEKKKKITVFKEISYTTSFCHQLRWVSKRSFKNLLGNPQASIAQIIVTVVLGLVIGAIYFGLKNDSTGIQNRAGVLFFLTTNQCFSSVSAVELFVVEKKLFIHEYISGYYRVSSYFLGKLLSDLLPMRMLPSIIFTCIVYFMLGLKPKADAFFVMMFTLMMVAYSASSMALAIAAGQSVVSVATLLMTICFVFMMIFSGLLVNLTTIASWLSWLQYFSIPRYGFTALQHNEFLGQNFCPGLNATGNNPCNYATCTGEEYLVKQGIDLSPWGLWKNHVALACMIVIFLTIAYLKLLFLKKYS

[22] = biological target: T1, ATP-dependent translocase ABCB1; assay: Inhibition of p-glycoprotein-mediated rhodamine-123 efflux in human K562/p-gp cells at 0.5 uM after 1 hr by flow cytometry relative to tariquidar; assay type: cell-based; conditions: 1 h, 0.5 µM
[23] = biological target: T1, ATP-dependent translocase ABCB1; assay: Inhibition of p-glycoprotein-mediated rhodamine-123 efflux in human K562/p-gp cells after 1 hr by flow cytometry; assay type: cell-based
K562 = assay: Effect on rhodamine-123 efflux in wild type human K562 cells at 0.5 uM after 1 hr by flow cytometry; assay type: ADME, cell-based; conditions: k562, 1 h
[24] = biological target: T1, ATP-dependent translocase ABCB1; assay: Inhibition of p-glycoprotein-mediated doxorubicin efflux in human K562/p-gp cells at 1 uM after 1 hr by flow cytometry; assay type: cell-based

T1 sequence (P08183 whole entry): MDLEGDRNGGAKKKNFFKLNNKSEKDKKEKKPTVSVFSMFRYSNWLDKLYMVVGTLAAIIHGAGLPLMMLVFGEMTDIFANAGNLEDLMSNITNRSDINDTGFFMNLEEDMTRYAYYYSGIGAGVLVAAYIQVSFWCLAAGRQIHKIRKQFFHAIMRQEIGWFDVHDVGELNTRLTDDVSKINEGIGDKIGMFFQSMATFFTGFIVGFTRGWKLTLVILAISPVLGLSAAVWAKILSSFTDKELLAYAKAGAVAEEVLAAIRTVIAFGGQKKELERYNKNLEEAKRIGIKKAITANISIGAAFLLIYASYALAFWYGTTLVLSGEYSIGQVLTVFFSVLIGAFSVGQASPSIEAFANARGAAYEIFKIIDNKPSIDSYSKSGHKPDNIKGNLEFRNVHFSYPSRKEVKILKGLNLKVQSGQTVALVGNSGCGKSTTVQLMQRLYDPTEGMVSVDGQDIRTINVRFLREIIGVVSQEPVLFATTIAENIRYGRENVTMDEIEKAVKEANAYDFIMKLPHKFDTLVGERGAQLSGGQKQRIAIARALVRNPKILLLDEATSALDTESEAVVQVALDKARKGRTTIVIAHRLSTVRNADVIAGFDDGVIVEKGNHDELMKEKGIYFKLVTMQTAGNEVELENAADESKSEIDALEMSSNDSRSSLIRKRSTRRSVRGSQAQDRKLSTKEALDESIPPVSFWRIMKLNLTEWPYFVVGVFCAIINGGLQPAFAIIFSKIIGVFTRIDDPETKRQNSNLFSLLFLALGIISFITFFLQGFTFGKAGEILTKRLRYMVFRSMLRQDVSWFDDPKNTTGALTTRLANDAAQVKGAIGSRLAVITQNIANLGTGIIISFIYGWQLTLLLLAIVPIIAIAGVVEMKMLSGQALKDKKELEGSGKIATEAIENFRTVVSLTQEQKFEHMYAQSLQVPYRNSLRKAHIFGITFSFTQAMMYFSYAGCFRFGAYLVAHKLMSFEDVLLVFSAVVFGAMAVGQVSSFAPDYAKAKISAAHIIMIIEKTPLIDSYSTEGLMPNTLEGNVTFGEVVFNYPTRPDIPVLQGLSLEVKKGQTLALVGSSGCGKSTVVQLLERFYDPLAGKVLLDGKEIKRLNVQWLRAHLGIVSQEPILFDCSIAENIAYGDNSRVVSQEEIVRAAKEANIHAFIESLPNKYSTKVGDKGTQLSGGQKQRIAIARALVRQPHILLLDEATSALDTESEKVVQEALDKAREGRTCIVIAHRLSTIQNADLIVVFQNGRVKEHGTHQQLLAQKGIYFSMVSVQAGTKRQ
Sequence of Multidrug resistance-associated protein 1 (P33527 whole entry): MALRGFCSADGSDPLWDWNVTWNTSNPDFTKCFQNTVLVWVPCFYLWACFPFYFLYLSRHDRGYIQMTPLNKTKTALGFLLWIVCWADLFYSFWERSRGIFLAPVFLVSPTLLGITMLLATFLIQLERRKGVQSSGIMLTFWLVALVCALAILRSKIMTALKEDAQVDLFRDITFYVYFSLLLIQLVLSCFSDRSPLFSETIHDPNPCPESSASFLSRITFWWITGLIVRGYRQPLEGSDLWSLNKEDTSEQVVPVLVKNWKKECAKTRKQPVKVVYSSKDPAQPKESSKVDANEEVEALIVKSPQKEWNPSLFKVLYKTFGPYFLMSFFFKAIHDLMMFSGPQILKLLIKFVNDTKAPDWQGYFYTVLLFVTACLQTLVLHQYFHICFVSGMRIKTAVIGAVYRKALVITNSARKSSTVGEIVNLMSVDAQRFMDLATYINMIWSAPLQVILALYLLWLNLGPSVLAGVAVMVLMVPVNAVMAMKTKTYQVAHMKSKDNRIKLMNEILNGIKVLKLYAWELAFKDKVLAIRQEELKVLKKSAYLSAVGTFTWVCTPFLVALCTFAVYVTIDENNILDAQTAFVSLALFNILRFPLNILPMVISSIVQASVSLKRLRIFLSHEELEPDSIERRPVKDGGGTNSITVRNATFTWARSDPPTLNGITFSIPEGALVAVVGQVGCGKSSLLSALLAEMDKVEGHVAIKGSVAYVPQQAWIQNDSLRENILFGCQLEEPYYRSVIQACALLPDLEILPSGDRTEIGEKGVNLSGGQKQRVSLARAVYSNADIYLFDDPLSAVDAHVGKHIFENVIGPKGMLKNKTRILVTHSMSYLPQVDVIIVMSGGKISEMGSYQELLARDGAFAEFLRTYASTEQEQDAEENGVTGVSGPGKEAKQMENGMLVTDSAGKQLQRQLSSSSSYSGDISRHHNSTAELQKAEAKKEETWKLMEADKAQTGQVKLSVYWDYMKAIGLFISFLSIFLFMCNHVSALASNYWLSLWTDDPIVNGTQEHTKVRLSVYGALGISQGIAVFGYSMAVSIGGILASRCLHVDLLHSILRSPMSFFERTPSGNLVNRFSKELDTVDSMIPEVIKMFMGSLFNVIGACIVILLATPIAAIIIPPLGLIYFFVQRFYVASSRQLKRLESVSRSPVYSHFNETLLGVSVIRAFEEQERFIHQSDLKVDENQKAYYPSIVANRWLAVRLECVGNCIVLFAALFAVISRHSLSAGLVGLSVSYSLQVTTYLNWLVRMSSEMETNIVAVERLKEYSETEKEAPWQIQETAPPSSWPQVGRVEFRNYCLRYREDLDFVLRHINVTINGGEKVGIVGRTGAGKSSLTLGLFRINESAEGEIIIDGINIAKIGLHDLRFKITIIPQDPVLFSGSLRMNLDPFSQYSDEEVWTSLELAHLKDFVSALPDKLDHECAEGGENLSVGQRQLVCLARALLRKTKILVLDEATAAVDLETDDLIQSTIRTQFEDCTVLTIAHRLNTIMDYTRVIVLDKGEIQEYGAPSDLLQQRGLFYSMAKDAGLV

inhibition (INH) [4] | Structure (SMILES) | IC50 [1] [µM] | IC50 (HCT-116) [µM] | IC50 [2] [µM] | IC50 [3] [µM] | IC50 (SW-620 [5]) [µM] | IC50 (Hepatocyte) [µM] | other results
Not Active | CCCS(=O)(=O)Nc1ccccc1C(=O)Nc1ccc(CCN2CCc3cc(OC)c(OC)cc3C2)cc1 | > 100 | > 100 | > 100 | > 100 | > 100 | – | –
Not Active | COc1cc2c(cc1OC)CN(CCc1ccc(NC(=O)c3ccccc3NC(=O)OCC3c4ccccc4-c4ccccc43)cc1)CC2 | > 100 | > 100 | > 100 | > 100 | > 100 | – | –
Not Active | COc1cc2c(cc1OC)CN(CCc1ccc(NC(=O)c3cc(OC)c(OC)cc3NC(=O)c3cnc4ccccc4c3)cc1)CC2 [TARIQUIDAR] | 25 | 12.5 | 25 | 1.28 | 25 | 25 | Activity [6]: Non-toxic; Activity (HepG2 [7]): Non-toxic; fold change (FC) [8]: 1.1; fold change (FC) (MCF7 [9]): 0.8; fold change (FC) [10]: 1.9; fold change (FC) [11]: 1.85; Activity (HepG2 [12]): Non-toxic; Activity [13]: Non-toxic; Activity [14]: Non-toxic; fold change (FC) (SW-620 [15]): 0.57; fold change (FC) (HepG2 [16]): 0.23; Activity [17]: Non-toxic; fold change (FC) [18]: 0.32; Activity (MCF7 [19]): Non-toxic; Activity (SW-620 [20]): Non-toxic; fold change (FC) [21]: 3.7
Not Active | CCCCCCCCCCCC(=O)Nc1ccccc1C(=O)Nc1ccc(CCN2CCc3cc(OC)c(OC)cc3C2)cc1 | > 100 | > 100 | > 100 | > 100 | > 100 | – | –
Not Active | COc1cc2c(cc1OC)CN(CCc1ccc(NC(=O)c3ccccc3NS(=O)(=O)c3ccc(C(F)(F)F)cc3)cc1)CC2 | > 100 | 25 | > 100 | > 100 | > 100 | 50 | –
Not Active | COc1cc2c(cc1OC)CN(CCc1ccc(NC(=O)c3cc(OC)c(OC)cc3NS(=O)(=O)c3ccc(C(F)(F)F)cc3)cc1)CC2 | > 100 | 25 | > 100 | > 100 | > 100 | 50 | –
Not Active | COc1cc2c(cc1OC)CN(CCc1ccc(NC(=O)c3ccccc3NS(=O)(=O)c3ccccc3F)cc1)CC2 | > 100 | > 100 | > 100 | > 100 | > 100 | 100 | –
Not Active | COc1cc2c(cc1OC)CN(CCc1ccc(NC(=O)c3ccccc3N(S(=O)(=O)c3ccccc3)S(=O)(=O)c3ccccc3)cc1)CC2 | > 100 | > 100 | > 100 | > 5 | > 100 | – | inhibition (INH) [22]: Active; inhibition (INH) [23]: Dose-dependent effect; Activity (K562): Non-toxic; inhibition (INH) [24]: Active; Activity (Hepatocyte; rat, hepatocytes): Non-toxic
Not Active | COc1ccc(S(=O)(=O)Nc2ccccc2C(=O)Nc2ccc(CCN3CCc4cc(OC)c(OC)cc4C3)cc2)cc1 | > 100 | > 100 | > 100 | > 100 | > 100 | – | –
